Assay results from ChEMBL document CHEMBL2321790, “1,4,2-Benzo/pyridodithiazine 1,1-dioxides structurally related to the ATP-sensitive potassium channel openers 1,2,4-Benzo/pyridothiadiazine 1,1-dioxides exert a myorelaxant activity linked to a distinct mechanism of action” (J Med Chem, 2013).

Key:
[1] = Activation of ATP-sensitive potassium channel opening in albino rat aorta rings assessed as relaxation of KCl-induced contraction of aorta rings; assay type: tissue-based
Rattus norvegicus = species: Rattus norvegicus; assay: Activation of ATP-sensitive potassium channel opening in albino rat pancreatic islets assessed as inhibition of glucose-induced insulin release measured as residual insulin release at 10 uM after 90 mins by radioimmunoassay
Aorta [2] = assay: Myorelaxant activity in albino rat aorta rings assessed as relaxation of 80 mM KCl-induced contraction of aorta rings; assay type: functional, tissue-based
Aorta [3] = assay: Myorelaxant activity in albino rat aorta rings assessed as relaxation of KCl-induced contraction of aorta rings in presence of 10 uM KATP channel blocker glibenclamide; assay type: functional, tissue-based
Aorta [4] = assay: Myorelaxant activity in albino rat aorta rings assessed as relaxation of 30 mM KCl-induced contraction of aorta rings; assay type: functional, tissue-based
Aorta [5] = assay: Myorelaxant activity in albino rat aorta rings assessed as relaxation of KCl-induced contraction of aorta rings in presence of 1 uM KATP channel blocker glibenclamide; assay type: functional, tissue-based
[6] = Dissociation constant, pKa of the compound in water at 25 degC; assay type: physicochemical
Aorta [7] = assay: Myorelaxant activity in albino rat aorta rings assessed as relaxation of KCl-induced contraction of aorta rings; assay type: functional, tissue-based

SMILES	EC50 [1] [µM]	Activity (Rattus norvegicus) [%]	other results
CC(SC1=NS(=O)(=O)c2cc(F)ccc2N1)c1ccccc1 (configuration not stated) [listing 1 of 2 here]		95.5	
CC1=Nc2ccc(Cl)cc2S(=O)(=O)N1 [DIAZOXIDE]	26.2	73.9	EC50 (Aorta [2]): > 300 µM; EC50 (Aorta [3]; read-out: EC50): 280 µM; EC50 (Aorta [4]): 23.8 µM; EC50 (Aorta [5]): 154 µM
CS(=O)(=O)c1ccc2c(c1)S(=O)(=O)N=C(Nc1ccccc1)S2	> 30	92.4	
C[C@@H](NC1=NS(=O)(=O)c2cc(C(F)(F)F)ccc2S1)c1ccccc1	> 30		
CC(NC1=NS(=O)(=O)c2cc(C(F)(F)F)ccc2S1)c1ccccc1 (stereo in doubt; 6t)		97	
CCC(C)NC1=NS(=O)(=O)c2cc(C(F)(F)F)ccc2S1 (configuration not stated)	38.8	110	
O=[N+]([O-])c1ccc2c(c1)S(=O)(=O)N=C(Nc1ccccc1)S2	> 200	89.5	
CC(SC1=NS(=O)(=O)c2cc(F)ccc2N1)c1ccccc1 (configuration not stated) [listing 2 of 2 here]	15		
CC(SC1=NS(=O)(=O)c2cc(F)ccc2N1)c1ccccc1 (racemic)			EC50 (Aorta [2]): 27.5 µM; EC50 (Aorta [3]; read-out: EC50): 36.2 µM; EC50 (Aorta [4]): 13.2 µM; EC50 (Aorta [5]): 33.3 µM
CC(SC1=NS(=O)(=O)c2cccc(Cl)c2N1)c1ccccc1 (configuration not stated)	> 30	79.2	
O=S1(=O)N=C(Nc2ccccc2)Sc2ccc(C(F)(F)F)cc21	13.7	67.8	
CC(NC1=NS(=O)(=O)c2cc(S(C)(=O)=O)ccc2S1)c1ccccc1 (configuration not stated)	> 30	83.4	
CC(C)NC1=NS(=O)(=O)c2c[n+]([O-])ccc2S1	> 200	76.7	
CC(SC1=NS(=O)(=O)c2cc(Br)ccc2N1)c1ccccc1 (configuration not stated)	11.9	91.7	
CC(C)NC1=NS(=O)(=O)c2cc(Cl)ccc2S1	> 100	92.2	pKa [6]: 9.76
CC(SC1=NS(=O)(=O)c2cc(I)ccc2N1)c1ccccc1 (configuration not stated)	5.4	81.4	
CC(NC1=NS(=O)(=O)c2cc([N+](=O)[O-])ccc2S1)c1ccccc1 (configuration not stated)	15.9	91.5	
CC(C)NC1=NS(=O)(=O)c2cccc(Cl)c2S1	> 30	82.4	
CC(SC1=NS(=O)(=O)c2ccc(Cl)cc2N1)c1ccccc1 (configuration not stated)	5.7	76.3	
COc1ccc(CCN(C)CCCC(C#N)(c2ccc(OC)c(OC)c2)C(C)C)cc1OC (configuration not stated) [VERAPAMIL]			EC50 (Aorta [2]): 0.052 µM; EC50 (Aorta [3]): 0.35 µM; EC50 (Aorta [4]): 0.031 µM; Activity (Aorta [7]): Dose-dependent effect; EC50 (Aorta [5]): 0.038 µM
CC(C)NC1=NS(=O)(=O)c2cc([N+](=O)[O-])ccc2S1	176	97.7	
CC(C)NC1=NS(=O)(=O)c2cc(C(=O)O)ccc2S1	> 200	68.5	
CCC(C)NC1=NS(=O)(=O)c2cc([N+](=O)[O-])ccc2S1 (configuration not stated)	59.9	110	

The next lines start with results.

EC50 [1] [µM]	Activity (Rattus norvegicus) [%]	SMILES	other results
190	90.6	CC(C)NC1=NS(=O)(=O)c2cnccc2S1	
69.1	110	CC(C)CNC1=NS(=O)(=O)c2cc([N+](=O)[O-])ccc2S1	
48.7	89.5	O=S1(=O)N=C(NC2CCCC2)Sc2ccc(C(F)(F)F)cc21	
> 30	77.7	O=[N+]([O-])c1ccc2c(c1)S(=O)(=O)N=C(NCc1ccccc1)S2	
11.3		C[C@H](NC1=NS(=O)(=O)c2cc(C(F)(F)F)ccc2S1)c1ccccc1	
5.4	71.1	CC(SC1=NS(=O)(=O)c2cc(Cl)ccc2N1)c1ccccc1 (configuration not stated)	
	97	CC(NC1=NS(=O)(=O)c2cc(C(F)(F)F)ccc2S1)c1ccccc1 (racemic) [listing 1 of 2 here]	
> 30	78.9	CC(C)NC1=NS(=O)(=O)c2ccc(Cl)cc2S1	
42.6	100	O=[N+]([O-])c1ccc2c(c1)S(=O)(=O)N=C(NC1CCCC1)S2	
> 30	100	CCNC1=NS(=O)(=O)c2cc([N+](=O)[O-])ccc2S1	
53.7	108	CC(C)NC1=NS(=O)(=O)c2cc(C(F)(F)F)ccc2S1	
11.6		CC(NC1=NS(=O)(=O)c2cc(C(F)(F)F)ccc2S1)c1ccccc1 (racemic) [listing 2 of 2 here]	EC50 (Aorta [2]): 14.9 µM; EC50 (Aorta [3]; read-out: EC50): 15.5 µM; EC50 (Aorta [4]): 16.2 µM; EC50 (Aorta [5]): 17.3 µM
61.1	90.2	O=[N+]([O-])c1ccc2c(c1)S(=O)(=O)N=C(NCC1CC1)S2	
152	86.2	CC(C)NC1=NS(=O)(=O)c2cc(C#N)ccc2S1	
31.8	4.8	CC(C)NC1=NS(=O)(=O)c2cc(Cl)ccc2N1	
> 200	76.3	CC(C)NC1=NS(=O)(=O)c2cc(S(C)(=O)=O)ccc2S1	
> 200	88.2	O=[N+]([O-])c1ccc2c(c1)S(=O)(=O)N=C(NC1CC1)S2	
